Reference: patent US6987114B1, “Antiviral pyrimidinedione derivatives and process for the preparation thereof” (Samjin Pharmaceutical Co., Ltd, priority 1999, dated 2006)
In brackets after ≈: the same amount, converted by molar mass. Where two headings read alike, the source gives them in different places.

Tests used:
HIV = test: microbe, parasite or virus in culture; type: cell-based
Description: Anti-HIV activity tests in vitro of the compounds according to the present invention were performed as described in J. Med. Chem, 34, 357, 1991. Inhibition by the compounds of virus-induced cytotoxic effect in MT-4 cells was measured as follows.
(§1) MT-4 cells were suspended in culture media at 2.5×10^5 cells/ml and infected with 1000 CCID50 (50% cell culture infective dose) of HIV. Immediately after virus infection, 100 μl of cell suspension was brought into each well of a flat-bottomed microtitray containing various concentrations of the test compounds. After 4 or 5 days incubation at 37° C., efficacy of the compounds was determined by the MTT method. Cytotoxicity of the compounds was assessed in parallel with their antiviral activity, based on viability of mock-infected host cells as determined by the MTT method.

mock-infected MT-4 cells = test: Cytotoxicity based on viability of mock-infected host cells (MTT method); type: cell-based
Description: as §1

[1] = HIV-infected MT-4 cells, MTT method, 4 or 5 days at 37° C.
[2] = mock-infected MT-4 cells, MTT method, 4 or 5 days at 37° C.
[3] = Human immunodeficiency virus 1, MT4, HIV-infected MT-4 cells, MTT method, 4 or 5 days at 37° C., read-out: ED50 (the source's name)
[4] = Human immunodeficiency virus 1, MT4, read-out: ED50

## 1-(2-Naphthalenemethyl)-5-ethyl-6-(3,5-dimethylbenzoyl)-2,4-pyrimidinedione [Example 95]
HIV; [1]
  ED50: 0.013 µg/mL
mock-infected MT-4 cells; [2]
  CD50: 16.50 µg/mL

## 1-(2-Naphthalenemethyl)-5-ethyl-6-(3,5-dimethylphenoxy)-2,4-pyrimidinedione [Example 93]
HIV; [1]
  ED50: 0.013 µg/mL
mock-infected MT-4 cells; [2]
  CD50: 83.22 µg/mL

## 1-(2-Naphthalenemethyl)-5-ethyl-6-(3,5-dimethylphenyl)thio-2,4-pyrimidinedione [Example 91]
HIV; [1]
  ED50: 0.004 µg/mL
mock-infected MT-4 cells; [2]
  CD50: 1.27 µg/mL

## 1-(2-Naphthalenemethyl)-5-isopropyl-6-(3,5-dimethyl-benzoyl)-2,4-pyrimidinedione [Example 96]
HIV; [1]
  ED50: 0.014 µg/mL
mock-infected MT-4 cells; [2]
  CD50: 9.64 µg/mL

## 1-(2-Naphthalenemethyl)-5-isopropyl-6-(3,5-dimethyl-phenyl)thio-2,4-pyrimidinedione [Example 92]
HIV; [1]
  ED50: 0.013 µg/mL
mock-infected MT-4 cells; [2]
  CD50: 8.93 µg/mL

## 1-(Benzoxazol-2-ylmethyl)-5-isopropyl-6-(3,5-dimethyl-benzoyl-2,4-pyrimidinedione [Example 150]
HIV; [1]
  ED50: 0.0031 µg/mL
mock-infected MT-4 cells; [2]
  CD50: 7.09 µg/mL

## 1-(Phenacyl)-5-ethyl-6-(3,5-dimethylbenzoyl)-2,425 pyrimidinedione [Example 167]
HIV; [1]
  ED50: 0.0569 µg/mL
mock-infected MT-4 cells
  CD50: 43.31 µg/mL

## 1-(Phenacyl)-5-ethyl-6-(3,5-dimethylphenoxy)-2,415 pyrimidinedione [Example 165]
HIV; [1]
  ED50: >58.11 µg/mL
mock-infected MT-4 cells
  CD50: 58.11 µg/mL

## 1-(Phenacyl)-5-isopropyl-6-(3,5-dimethylbenzoyl)-2,430 pyrimidinedione [Example 168]
HIV; [1]
  ED50: 0.0174 µg/mL
mock-infected MT-4 cells
  CD50: 5.48 µg/mL

## 1-(Phenacyl)-5-isopropyl-6-(3,5-dimethylphenoxy)-2,420 pyrimidinedione [Example 166]
HIV; [1]
  ED50: 0.7562 µg/mL
mock-infected MT-4 cells
  CD50: >100.00 µg/mL

## Cc1cn([C@H]2C[C@H](N=[N+]=[N-])[C@@H](CO)O2)c(=O)[nH]c1=O [AZT]
HIV; [1]
  ED50: 0.0015 µg/mL (≈ 0.00561 µM)
mock-infected MT-4 cells; [2]
  CD50: 0.70 µg/mL

## CCc1c(Sc2cc(C)cc(C)c2)n(CC2CC2)c(=O)[nH]c1=O [Example 1, 1-(Cyclopropyl)methyl-5-ethyl-6-(3,5-dimethylphenyl)thio-2,4-pyrimidinedione]
HIV; [3]
  EC50: 0.0027 µg/mL (≈ 0.00817 µM)
other
  melting point: 161 to 163 °C
mock-infected MT-4 cells; [2]
  CD50: 4.75 µg/mL

## Cc1cc(C)cc(Sc2c(C(C)C)c(=O)[nH]c(=O)n2CC2CC2)c1 [Example 2, 1-(Cyclopropyl)methyl-5-isopropyl-6-(3,5-dimethylphenyl)thio-2,4-pyrimidinedione]
HIV; [3]
  EC50: < 0.0002 µg/mL
mock-infected MT-4 cells; [2]
  CD50: 12.43 µg/mL

## CCc1c(Oc2cc(C)cc(C)c2)n(CC2CC2)c(=O)[nH]c1=O [Example 3, 1-(Cyclopropyl)methyl-5-ethyl-6-(3,5-dimethylphenoxy)-2,4-pyrimidinedione]
HIV; [3]
  EC50: 0.011 µg/mL (≈ 0.035 µM)
mock-infected MT-4 cells; [2]
  CD50: >100.00 µg/mL

## Cc1cc(C)cc(Oc2c(C(C)C)c(=O)[nH]c(=O)n2CC2CC2)c1 [Example 4, 1-(Cyclopropyl)methyl-5-isopropyl-6-(3,5-dimethylphenoxy)-2,4-pyrimidinedione]
HIV; [3]
  EC50: < 0.0002 µg/mL
other
  melting point: 146 to 148 °C
mock-infected MT-4 cells; [2]
  CD50: 12.70 µg/mL

## CCc1c(C(=O)c2cc(C)cc(C)c2)n(CC2CC2)c(=O)[nH]c1=O [Example 5, 1-(Cyclopropyl)methyl-5-ethyl-6-(3,5-dimethylbenzoyl)-2,4-pyrimidinedione]
HIV; [3]
  EC50: 0.0011 µg/mL (≈ 0.00337 µM)
other
  melting point: 234 to 236 °C
mock-infected MT-4 cells; [2]
  CD50: 39.4 µg/mL

## Cc1cc(C)cc(C(=O)c2c(C(C)C)c(=O)[nH]c(=O)n2CC2CC2)c1 [Example 6, 1-(Cyclopropyl)methyl-5-isopropyl-6-(3,5-dimethylbenzoyl)-2,4-pyrimidinedione]
HIV; [3]
  EC50: 0.0022 µg/mL (≈ 0.00646 µM)
other
  melting point: 193 to 195 °C
mock-infected MT-4 cells; [2]
  CD50: 8.5 µg/mL

## CCc1c(Sc2cc(C)cc(C)c2)n(CC2CCC2)c(=O)[nH]c1=O [Example 7, 1-(Cyclobutyl)methyl-5-ethyl-6-(3,5-dimethylphenyl)thio-2,4-pyrimidinedione]
HIV; [3]
  EC50: 0.028 µg/mL (≈ 0.0813 µM)
mock-infected MT-4 cells; [2]
  CD50: 11.73 µg/mL

## Cc1cc(C)cc(Sc2c(C(C)C)c(=O)[nH]c(=O)n2CC2CCC2)c1 [Example 8, 1-(Cyclobutyl)methyl-5-isopropyl-6-(3,5-dimethylphenyl)thio-2,4-pyrimidinedione]
HIV; [3]
  EC50: 0.013 µg/mL (≈ 0.0363 µM)
mock-infected MT-4 cells; [2]
  CD50: 5.9 µg/mL

## CCc1c(Oc2cc(C)cc(C)c2)n(CC2CCC2)c(=O)[nH]c1=O [Example 9, 1-(Cyclobutyl)methyl-5-ethyl-6-(3,5-dimethylphenoxy)-2,4-pyrimidinedione]
HIV; [3]
  EC50: 0.0756 µg/mL (≈ 0.23 µM)
mock-infected MT-4 cells; [2]
  CD50: >100.00 µg/mL

## Cc1cc(C)cc(Oc2c(C(C)C)c(=O)[nH]c(=O)n2CC2CCC2)c1 [Example 10, 1-(Cyclobutyl)methyl-5-isopropyl-6-(3,5-dimethylphenoxy)-2,4-pyrimidinedione]
HIV; [3]
  EC50: 0.0147 µg/mL (≈ 0.0429 µM)
mock-infected MT-4 cells; [2]
  CD50: 7.8 µg/mL

## CCc1c(Sc2cc(C)cc(C)c2)n(CC2CCCCC2)c(=O)[nH]c1=O [Example 13, 1-(Cyclohexyl)methyl-5-ethyl-6-(3,5-dimethylphenyl)thio-2,4-pyrimidinedione]
HIV; [4]
  EC50: 0.27 µg/mL (≈ 0.725 µM)
mock-infected MT-4 cells; [2]
  CD50: 11.10 µg/mL

## Cc1cc(C)cc(Sc2c(C(C)C)c(=O)[nH]c(=O)n2CC2CCCCC2)c1 [Example 14, 1-(Cyclohexyl)methyl-5-isopropyl-6-(3,5-dimethylphenyl)thio-2,4-pyrimidinedione]
HIV; [4]
  EC50: 0.061 µg/mL (≈ 0.158 µM)
mock-infected MT-4 cells; [2]
  CD50: 6.40 µg/mL

## CCc1c(Oc2cc(C)cc(C)c2)n(CC2CCCCC2)c(=O)[nH]c1=O [Example 15, 1-(Cyclohexyl)methyl-5-ethyl-6-(3,5-dimethylphenoxy)-2,4-pyrimidinedione]
HIV; [4]
  EC50: 0.069 µg/mL (≈ 0.194 µM)
mock-infected MT-4 cells; [2]
  CD50: 9.17 µg/mL

## Cc1cc(C)cc(Oc2c(C(C)C)c(=O)[nH]c(=O)n2CC2CCCCC2)c1 [Example 16, 1-(Cyclohexyl)methyl-5-isopropyl-6-(3,5-dimethylphenoxy)-2,4-pyrimidinedione]
HIV; [4]
  EC50: 0.065 µg/mL (≈ 0.175 µM)
mock-infected MT-4 cells; [2]
  CD50: 8.30 µg/mL

## CCc1c(Sc2cc(C)cc(C)c2)n(Cc2ccccc2)c(=O)[nH]c1=O [Example 19, 1-Benzyl-5-ethyl-6-(3,5-dimethylphenyl)thio-2,4-pyrimidine-dione]
HIV; [3]
  EC50: 0.015 µg/mL (≈ 0.0409 µM)
mock-infected MT-4 cells; [2]
  CD50: 12.59 µg/mL

## Cc1cc(C)cc(Sc2c(C(C)C)c(=O)[nH]c(=O)n2Cc2ccccc2)c1 [Example 20, 1-Benzyl-5-isopropyl-6-(3,5-dimethylphenyl)thio-2,4-pyrimidinedione]
HIV; [3]
  EC50: 0.012 µg/mL (≈ 0.0315 µM)
mock-infected MT-4 cells; [2]
  CD50: 11.30 µg/mL

## CCc1c(Oc2cc(C)cc(C)c2)n(Cc2ccccc2)c(=O)[nH]c1=O [Example 21, 1-Benzyl-5-ethyl-6-(3,5-dimethylphenoxy)-2,4-pyrimidine-dione]
HIV; [3]
  EC50: 0.036 µg/mL (≈ 0.103 µM)
mock-infected MT-4 cells; [2]
  CD50: 16.58 µg/mL

## Cc1cc(C)cc(Oc2c(C(C)C)c(=O)[nH]c(=O)n2Cc2ccccc2)c1 [Example 22, 1-Benzyl-5-isopropyl-6-(3,5-dimethylphenoxy)-2,4-pyrimidinedione]
HIV; [3]
  EC50: 0.015 µg/mL (≈ 0.0412 µM)
mock-infected MT-4 cells; [2]
  CD50: 25.48 µg/mL

## Cc1cc(C)cc(C(=O)c2c(C(C)C)c(=O)[nH]c(=O)n2Cc2ccccn2)c1 [Example 114, 1-(Pyridin-2-2-ylmethyl)-5-isopropyl-6-(3,5-dimethyl-benzoyl)-2,4-pyrimidinedione]
HIV; [1]
  ED50: 0.0032 µg/mL (≈ 0.00848 µM)
mock-infected MT-4 cells; [2]
  CD50: 24.60 µg/mL

## CCc1c(C(=O)c2cc(C)cc(C)c2)n(Cc2cccc(Br)n2)c(=O)[nH]c1=O [Example 129, 1-(2-Bromopyridib-6-ylmethyl)-5-ethyl-6-(3,5-dimethyl-benzoyl)-2,4-pyrimidinedione]
HIV; [1]
  ED50: 0.010 µg/mL (≈ 0.0226 µM)
mock-infected MT-4 cells
  CD50: 7.44 µg/mL

## CCc1c(Oc2cc(C)cc(C)c2)n(CC2CO2)c(=O)[nH]c1=O (stereo not drawn) [Example 137, 1-(2,3-Epoxypropyl)-5-ethyl-6-(3,5-dimethylphenoxy)-2,4-pyrimidinedione]
HIV; [4]
  EC50: 1.25 µg/mL (≈ 3.95 µM)
mock-infected MT-4 cells; [2]
  CD50: 40.50 µg/mL

## Cc1cc(C)cc(Oc2c(C(C)C)c(=O)[nH]c(=O)n2CC2CO2)c1 (stereo not drawn) [Example 138, 1-(2,3-Epoxypropyl)-5-isopropyl-6-(3,5-dimethylphenoxy)-2,4-pyrimidinedione]
HIV; [4]
  EC50: 0.34 µg/mL (≈ 1.03 µM)
mock-infected MT-4 cells; [2]
  CD50: 39.60 µg/mL

## CCc1c(C(=O)c2cc(C)cc(C)c2)n(CC2CO2)c(=O)[nH]c1=O (stereo not drawn) [Example 139, 1-(2,3-Epoxypropyl)-5-ethyl-6-(3,5-dimethylbenzoyl)-2,4-pyrimidinedione]
HIV; [4]
  EC50: 0.34 µg/mL (≈ 1.04 µM)
mock-infected MT-4 cells; [2]
  CD50: >100.00 µg/mL

## Cc1cc(C)cc(C(=O)c2c(C(C)C)c(=O)[nH]c(=O)n2CC2CO2)c1 (stereo not drawn) [Example 140, 1-(2,3-Epoxypropyl)-5-isopropyl-6-(3,5-dimethylbenzoyl)-2,4-pyrimidinedione]
HIV; [4]
  EC50: 0.094 µg/mL (≈ 0.275 µM)
mock-infected MT-4 cells; [2]
  CD50: 41.90 µg/mL

## CCc1c(Sc2cc(C)cc(C)c2)n(Cc2occc2C(=O)OC)c(=O)[nH]c1=O [Example 151, 1-(3-Methoxycarbonyl-2-furanylmethyl)-5-ethyl-6-(3,55 dimethylphenyl)thio-2,4-pyrimidinedione]
HIV; [1]
  ED50: 0.015 µg/mL (≈ 0.0362 µM)
mock-infected MT-4 cells
  CD50: 8.67 µg/mL

## CCC(=O)Cn1c(C(=O)c2cc(C)cc(C)c2)c(CC)c(=O)[nH]c1=O [Example 163, 1-(2-Butanon-1-yl)-5-ethyl-6-(3,5-dimethylbenzoyl) δ 2,4-pyrimidinedione]
HIV; [1]
  ED50: 0.0034 µg/mL (≈ 0.00993 µM)
mock-infected MT-4 cells; [2]
  CD50: 9.31 µg/mL
